In US9963445B2, “Chemical compounds” (SYNGENTA PARTICIPATIONS AG, priority 2013, dated 2018):

How the values were obtained:
Format in all cases: in vivo
[1] = tested on: Abutilon theophrasti; experiment: Post-emergence herbicidal activity, glasshouse pot test; design: key: 0 = no damage to plant, 5 = total damage to plant; conditions: Application post-emergence, rate 1000 g/ha, evaluated after 13 days
Summary of the method: (§1)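 Damage rated 0 (none) to 5 (total) 13 days after spraying. Plants were treated post-emergence at 8 days after sowing, using an acetone/water (50:50) formulation with 0.5% Tween 20 diluted to an aqueous spray.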

[2] = tested on: Alopecurus myosuroides; experiment: as above; design: key: 0 = no damage to plant, 5 = total damage to plant; conditions: Application post-emergence, rate 1000 g/ha, evaluated after 13 days
Summary of the method: as §1

[3] = tested on: Setaria faberi; experiment: as above; design: key: 0 = no damage to plant, 5 = total damage to plant; conditions: Application post-emergence, rate 1000 g/ha, evaluated after 13 days
Summary of the method: as §1

[4] = tested on: zea mays; experiment: as above; design: key: 0 = no damage to plant, 5 = total damage to plant; conditions: Application post-emergence, rate 1000 g/ha, evaluated after 13 days
Summary of the method: as §1

[5] = tested on: Echinochloa crus-galli; experiment: as above; design: key: 0 = no damage to plant, 5 = total damage to plant; conditions: Application post-emergence, rate 1000 g/ha, evaluated after 13 days
Summary of the method: as §1

[6] = tested on: Amaranthus retroflexus; experiment: as above; design: key: 0 = no damage to plant, 5 = total damage to plant; conditions: Application post-emergence, rate 1000 g/ha, evaluated after 13 days
Summary of the method: as §1

[7] = tested on: Abutilon theophrasti; experiment: Pre-emergence herbicidal activity, glasshouse pot test; conditions: pre-emergence spray, rate 1000 g/ha, evaluated after 13 days, scale 0-5
Summary of the method: (§2)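 Pots of seeded soil were sprayed one day after sowing (pre-emergence) with compound formulated in acetone/water 50:50 with 0.5% Tween 20. Plants were grown in a glasshouse at 24/16 °C day/night, 14 h light, 65% humidity. Damage was scored after 13 days on a 0–5 scale (5 = total damage).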

[8] = tested on: Alopecurus myosuroides; experiment: as above; conditions: pre-emergence spray, rate 1000 g/ha, evaluated after 13 days, scale 0-5
Summary of the method: as §2

[9] = tested on: Setaria faberi; experiment: as above; conditions: pre-emergence spray, rate 1000 g/ha, evaluated after 13 days, scale 0-5
Summary of the method: as §2

[10] = tested on: zea mays; experiment: as above; conditions: pre-emergence spray, rate 1000 g/ha, evaluated after 13 days, scale 0-5
Summary of the method: as §2

[11] = tested on: Echinochloa crus-galli; experiment: as above; conditions: pre-emergence spray, rate 1000 g/ha, evaluated after 13 days, scale 0-5
Summary of the method: as §2

[12] = tested on: Amaranthus retroflexus; experiment: as above; conditions: pre-emergence spray, rate 1000 g/ha, evaluated after 13 days, scale 0-5
Summary of the method: as §2

Compound | ABUTH herbicidal damage score [1] | ALOMY herbicidal damage score [2] | SETFA herbicidal damage score [3] | ZEAMX herbicidal damage score [4] | ECHCG herbicidal damage score [5] | AMARE herbicidal damage score [6] | ABUTH damage score, application pre-emergence [7] | ALOMY damage score, application pre-emergence [8] | SETFA damage score, application pre-emergence [9] | ZEAMX damage score, application pre-emergence [10] | ECHCG damage score, application pre-emergence [11] | AMARE damage score, application pre-emergence [12]
COC1=C(OC)C(O)N(c2cc(C)c(OC)nn2)C1=O (stereo not drawn) [BK1] | 5 | 4 | 5 | 3 | 5 | 5 | 4 | 4 | 4 | 2 | 4 | 5
COC1=C(C)C(O)N(c2cc(C(F)(F)Cl)ccn2)C1=O (stereo not drawn) [AI16] | 5 | 4 | 5 | 3 | 5 | 5 | 1 | 3 | 5 | 2 | 5 | 5
CC1=C(Cl)C(=O)N(c2cc(C(F)(F)F)c(-c3nn(C)c4ccccc34)cn2)C1O (stereo not drawn) [AF105] | 5 | 3 | 4 | 0 | 2 | 5 | 0 | 0 | 0 | 0 | 0 | 0
CC1=C(Cl)C(=O)N(c2cc(C(F)(F)F)cc[n+]2[O-])C1O (stereo not drawn) [AF28] | 3 | 1 | 3 | 1 | 1 | 0 | 0 | 0 | 0 | 0 | 0 | 0
COC1=C(C)C(O)N(c2cc(OC(F)(F)F)ccn2)C1=O (stereo not drawn) [AI3] | 4 | 5 | 5 | 1 | 5 | 4 | 4 | 3 | 4 | 2 | 4 | 5
CC(C)C1=C(Cl)C(=O)N(c2cc(C(F)(F)F)ccn2)C1O (stereo not drawn) [AF83] | 2 | 3 | 0 | 0 | 2 | 0 | 0 | 2 | 1 | 1 | 2 | 2
COc1ccc(-c2ccc(N3C(=O)C(Cl)=C(C)C3O)nc2)cc1 (stereo not drawn) [AF59] | 4 | 1 | 2 | 0 | 1 | 3 | 2 | 0 | 0 | 0 | 1 | 3
COC1=C(C)C(O)N(c2cc(C(C)(F)F)c(C)nn2)C1=O (stereo not drawn) [BI24] | 5 | 4 | 5 | 3 | 5 | 5 | 5 | 4 | 4 | 3 | 4 | 5
CC1=C(Cl)C(=O)N(c2cc(C(C)C#N)ncn2)C1O (stereo not drawn) [CF18] | 4 | 3 | 3 | 1 | 2 | 2 | 1 | 4 | 3 | 0 | 1 | 1
CC#Cc1nnc(N2C(=O)C(OC)=C(C)C2O)cc1C(C)(F)F (stereo not drawn) [BI18] | 5 | 3 | 4 | 2 | 5 | 5 | 4 | 3 | 3 | 1 | 3 | 4
CCc1cc(N2C(=O)C(OC)=C(C)C2O)ncc1Br (stereo not drawn) [AI22] | 4 | 4 | 5 | 1 | 5 | 5 | 1 | 3 | 2 | 1 | 4 | 5
COC1=C(C)C(O)N(c2cc(C(C)(F)F)c(-c3ccc(F)cc3)nn2)C1=O (stereo not drawn) [BI17] | 5 | 4 | 5 | 3 | 5 | 5 | 4 | 4 | 4 | 2 | 3 | 4
COC1=C(C)C(O)N(c2cc(C)c(Br)cn2)C1=O (stereo not drawn) [AI32] | 5 | 5 | 5 | 2 | 5 | 5 | 0 | 2 | 2 | 1 | 4 | 5
CC1=C(Cl)C(=O)N(c2cc(C(F)(F)F)c(Cl)cn2)C1O (stereo not drawn) [AF58] | 5 | 4 | 5 | 3 | 5 | 5 | 2 | 3 | 3 | 0 | 4 | 5
COC1=C(C)C(O)N(c2cc(C(C)F)ccn2)C1=O (stereo not drawn) [AI17] | 5 | 5 | 5 | 3 | 5 | 5 | 5 | 4 | 5 | 4 | 5 | 5
COC1=C(C)C(O)N(c2cc(C(C)(F)F)c(C#N)nn2)C1=O (stereo not drawn) [BI23] | 4 | 4 | 4 | 1 | 4 | 3 | 4 | 4 | 2 | 1 | 4 | 5
